Tested on: 422866-222-R5-J1-PDC complex spheroid viability
Experiment: Anticancer human tumor 422866-222-R5-J1-PDC patient-derived pancreatic adenocarcinoma cell line growth inhibition [POLQ]
Settings: for IC50: curve of first compound; for viability, T/C: stronger effect = lower value
In short: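 Three-cell-type spheroids modelling solid tumor plus stroma served as the readout system; POL inhibitors were tested individually and in combination, concentration ranges set by clinical Cmax where known.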

[1] = second compound 0.0316 µM, first compound 0.0316 µM
[2] = second compound 0.0316 µM, first compound 0.1 µM
[3] = second compound 0.1 µM, first compound 0.0316 µM
[4] = second compound 0.1 µM, first compound 0.1 µM
[5] = second compound 0.316 µM, first compound 0.0316 µM
[6] = second compound 0.316 µM, first compound 0.1 µM
[7] = second compound 1 µM, first compound 0.0316 µM
[8] = second compound 1 µM, first compound 0.1 µM
[9] = second compound 3.16 µM, first compound 0.0316 µM
[10] = second compound 3.16 µM, first compound 0.1 µM
[11] = second compound 10 µM, first compound 0.0316 µM
[12] = second compound 10 µM, first compound 0.1 µM
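Also: spheroids exposed to compounds for one week before readout.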
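For viability, T/C in this document: percent of DMSO vehicle wells luminescence so 100% = untreated viability.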

Q: Which IC50 (second compound 0.0316 µM) does the source give for CCCS(=O)(=O)Nc1ccc(F)c(C(=O)c2c[nH]c3ncc(-c4ccc(Cl)cc4)cc23)c1F + Cc1cccc(N(C)C(=O)C2C(O)CCN2c2nc(C)cc(C(F)(F)F)c2C#N)c1 here?
A: > 10 µM

Q: What about the IC50 (second compound 0.1 µM) of the same compound?
A: > 10 µM

Q: What about the IC50 (second compound 0.316 µM) of the same compound?
A: > 10 µM

Q: What about the IC50 (second compound 1 µM) of the same compound?
A: > 10 µM

Q: What about the IC50 (second compound 3.16 µM) of the same compound?
A: > 10 µM

Q: What about the IC50 (second compound 10 µM) of the same compound?
A: > 10 µM

Q: And the viability, T/C [1]?
A: 92.3%

Q: What about the viability, T/C [2] of the same compound?
A: 115%

Q: And the viability, T/C (second compound 0.0316 µM, first compound 0.316 µM)?
A: 122%

Q: What about the viability, T/C (second compound 0.0316 µM, first compound 1 µM) of the same compound?
A: 156%

Q: What about the viability, T/C (second compound 0.0316 µM, first compound 3.16 µM) of the same compound?
A: 214%

Q: And the viability, T/C (second compound 0.0316 µM, first compound 10 µM)?
A: 102%

Q: What about the viability, T/C [3] of the same compound?
A: 93%

Q: And the viability, T/C [4]?
A: 99.1%

Q: What about the viability, T/C (second compound 0.1 µM, first compound 0.316 µM) of the same compound?
A: 111%

Q: What about the viability, T/C (second compound 0.1 µM, first compound 1 µM) of the same compound?
A: 138%

Q: And the viability, T/C (second compound 0.1 µM, first compound 3.16 µM)?
A: 200%

Q: What about the viability, T/C (second compound 0.1 µM, first compound 10 µM) of the same compound?
A: 102%

Q: And the viability, T/C [5]?
A: 92.6%

Q: And the viability, T/C [6]?
A: 105%

Q: And the viability, T/C (second compound 0.316 µM, first compound 0.316 µM)?
A: 135%

Q: What about the viability, T/C (second compound 0.316 µM, first compound 1 µM) of the same compound?
A: 164%

Q: And the viability, T/C (second compound 0.316 µM, first compound 3.16 µM)?
A: 143%

Q: And the viability, T/C (second compound 0.316 µM, first compound 10 µM)?
A: 94.9%

Q: And the viability, T/C [7]?
A: 98.5%

Q: What about the viability, T/C [8] of the same compound?
A: 104%

Q: What about the viability, T/C (second compound 1 µM, first compound 0.316 µM) of the same compound?
A: 124%

Q: And the viability, T/C (second compound 1 µM, first compound 1 µM)?
A: 145%

Q: What about the viability, T/C (second compound 1 µM, first compound 3.16 µM) of the same compound?
A: 192%

Q: What about the viability, T/C (second compound 1 µM, first compound 10 µM) of the same compound?
A: 94.8%

Q: What about the viability, T/C [9] of the same compound?
A: 99.4%

Q: What about the viability, T/C [10] of the same compound?
A: 105%

Q: What about the viability, T/C (second compound 3.16 µM, first compound 0.316 µM) of the same compound?
A: 138%

Q: And the viability, T/C (second compound 3.16 µM, first compound 1 µM)?
A: 163%

Q: And the viability, T/C (second compound 3.16 µM, first compound 3.16 µM)?
A: 205%

Q: And the viability, T/C (second compound 3.16 µM, first compound 10 µM)?
A: 107%

Q: And the viability, T/C [11]?
A: 84.4%

Q: What about the viability, T/C [12] of the same compound?
A: 97%

Q: And the viability, T/C (second compound 10 µM, first compound 0.316 µM)?
A: 124%

Q: What about the viability, T/C (second compound 10 µM, first compound 1 µM) of the same compound?
A: 149%

Q: And the viability, T/C (second compound 10 µM, first compound 3.16 µM)?
A: 188%

Q: What about the viability, T/C (second compound 10 µM, first compound 10 µM) of the same compound?
A: 79.2%

Q: With Cn1ncnc1[C@H]1c2n[nH]c(=O)c3cc(F)cc(c23)N[C@@H]1c1ccc(F)cc1 + Cc1cccc(N(C)C(=O)C2C(O)CCN2c2nc(C)cc(C(F)(F)F)c2C#N)c1 as the compound, how does the IC50 (second compound 0.0316 µM) read?
A: > 0.1 µM

Q: And the IC50 (second compound 0.1 µM)?
A: > 0.1 µM

Q: And the IC50 (second compound 0.316 µM)?
A: > 0.1 µM

Q: And the IC50 (second compound 1 µM)?
A: > 0.1 µM

Q: And the IC50 (second compound 3.16 µM)?
A: > 0.1 µM

Q: And the IC50 (second compound 10 µM)?
A: > 0.1 µM

Q: What about the viability, T/C (second compound 0.0316 µM, first compound 0.000316 µM) of the same compound?
A: 93.3%

Q: And the viability, T/C (second compound 0.0316 µM, first compound 0.001 µM)?
A: 97.3%

Q: And the viability, T/C (second compound 0.0316 µM, first compound 0.00316 µM)?
A: 93.7%

Q: And the viability, T/C (second compound 0.0316 µM, first compound 0.01 µM)?
A: 89%

Q: And the viability, T/C [1]?
A: 76.5%

Q: What about the viability, T/C [2] of the same compound?
A: 82.1%

Q: What about the viability, T/C (second compound 0.1 µM, first compound 0.000316 µM) of the same compound?
A: 116%

Q: What about the viability, T/C (second compound 0.1 µM, first compound 0.001 µM) of the same compound?
A: 95.2%

Q: What about the viability, T/C (second compound 0.1 µM, first compound 0.00316 µM) of the same compound?
A: 90%

Q: What about the viability, T/C (second compound 0.1 µM, first compound 0.01 µM) of the same compound?
A: 93.2%

Q: And the viability, T/C [3]?
A: 81.8%

Q: And the viability, T/C [4]?
A: 65.9%

Q: And the viability, T/C (second compound 0.316 µM, first compound 0.000316 µM)?
A: 108%

Q: And the viability, T/C (second compound 0.316 µM, first compound 0.001 µM)?
A: 97.3%

Q: What about the viability, T/C (second compound 0.316 µM, first compound 0.00316 µM) of the same compound?
A: 90.6%

Q: And the viability, T/C (second compound 0.316 µM, first compound 0.01 µM)?
A: 88.4%

Q: And the viability, T/C [5]?
A: 81.4%

Q: What about the viability, T/C [6] of the same compound?
A: 83.1%

Q: And the viability, T/C (second compound 1 µM, first compound 0.000316 µM)?
A: 93.9%

Q: And the viability, T/C (second compound 1 µM, first compound 0.001 µM)?
A: 90.2%

Q: What about the viability, T/C (second compound 1 µM, first compound 0.00316 µM) of the same compound?
A: 93.6%

Q: What about the viability, T/C (second compound 1 µM, first compound 0.01 µM) of the same compound?
A: 89%

Q: What about the viability, T/C [7] of the same compound?
A: 79.3%

Q: And the viability, T/C [8]?
A: 77.2%

Q: What about the viability, T/C (second compound 3.16 µM, first compound 0.000316 µM) of the same compound?
A: 95.6%

Q: And the viability, T/C (second compound 3.16 µM, first compound 0.001 µM)?
A: 101%

Q: What about the viability, T/C (second compound 3.16 µM, first compound 0.00316 µM) of the same compound?
A: 94.2%

Q: What about the viability, T/C (second compound 3.16 µM, first compound 0.01 µM) of the same compound?
A: 77.3%

Q: And the viability, T/C [9]?
A: 87.4%

Q: And the viability, T/C [10]?
A: 91.9%

Q: What about the viability, T/C (second compound 10 µM, first compound 0.000316 µM) of the same compound?
A: 95.1%

Q: And the viability, T/C (second compound 10 µM, first compound 0.001 µM)?
A: 97.7%

Q: And the viability, T/C (second compound 10 µM, first compound 0.00316 µM)?
A: 102%

Q: And the viability, T/C (second compound 10 µM, first compound 0.01 µM)?
A: 72.5%

Q: What about the viability, T/C [11] of the same compound?
A: 82.9%

Q: And the viability, T/C [12]?
A: 83.2%

Reference: PubChem BioAssay AID1963844 (Molecular Pharmacology Branch, DTP, NCI, 2024)
